# Experimental data published in publication PMC5711494, “Sterol methyltransferase a target for anti-amoeba therapy: towards transition state analog and suicide substrate drug design” (Journal of Lipid Research, 2017).
# Assays:
# [1] = test system: Acanthamoeba castellanii trophozoites sterol biosynthesis; assay: Sterol composition of treated Ac trophozoites (GC/MS); assay type: cell-based; conditions: 15 µM, 24 h
# Experimental: Amoeba and HEK cells were harvested at one or more points during growth in the presence and absence of steroidal inhibitor and azole at IC50 or MACs of the inhibitor or at 40 µM for HEK cells. Cell pellets were split with an internal standard of known amounts of 5α-cholestane added to one of the cell pellets for determination of sterol amounts in cells. Cells were saponified directly in aqueous methanolic potassium hydroxide at the reflux temperature for 1 h, which yielded total sterol (free plus sterol released from ester bonds). The resulting neutral lipids obtained by dilution with water and extraction with hexane (Fisher) were analyzed by GC/MS or HPLC-equipped with a diode array detector against cholesterol as a chromatographic reference. GC and HPLC retention times of sterols were compared with those obtained from authentic standards in our steroid collection ([18]–[22]). To determine the trophozoite sterol metabolome, GC/MS analysis of cell pellet nonsaponfiables was typically carried out using control cultures incubated in 5 ml medium in 25 ml T-flasks inoculated with 1 × 10^4 trophozoites/ml and cultured for 72 h. To generate significant cell pellets for sterol analysis of treated cells, trophozoites were cultured in 10 ml medium in 25 ml T-flasks inoculated with 1 × 10^5 cells/ml and grown for 48 h.
# [2] = test system: Ac24-SMT; assay: Substrate kinetics and product analysis with recombinant Ac24-SMT; assay type: biochemical, Acanthamoeba castellanii
# Experimental: The SMT constructs were transformed into competent BL21(DE3) cells and transformants selected against 100 µg/ml ampicillin. Expression of the SMT constructs and partial purification of the recombinant proteins followed the procedure described previously ([19]). […] In one tube, cells were induced by addition of isopropyl thio-galactoside at a final concentration of 1 mM and in the other tube, were un-induced. Cells were harvested 2 and 4 h after induction and an equal number of cells (as calculated by OD @600 nm) from induced (+) and un-induced (−) cultures were boiled with 1X Laemmli’s buffer and analyzed by SDS-PAGE (12%). Gel was stained with Coomassie Brilliant Blue (0.2%) to establish the molecular weight and purity of the expressed protein. Total protein concentrations were determined by Bradford dye-binding procedure with bovine γ-globulin as standard. To determine the catalytic activity of the recombinant proteins, enzyme assays were carried out using soluble bacterial extract (100,000 g fraction) in 9 ml test tubes containing a total of 600 µl assay volume for 45 min (initial velocity conditions). The assay buffer contained 20 mM phosphate buffer in 5% (v/v) glycerol at pH 7.5, sterol acceptor emulsified in 12 µl Tween 80 (1.2 g/l), and the substrate tested over the concentration range 5 to 150 µM against 1.2 mg of total protein. The reaction was initiated by the addition of saturating levels of [methyl-^3H3]SAM, 0.9 µCi, at 150 µM. Incubation mixtures were saponified with methanolic potassium hydroxide and extracted with hexane (3 × 1 ml) and concentrated to dryness providing the nonsaponifiable lipid fraction; radioactivity was determined by liquid scintillation counting. […]
# [3] = test system: Ac24-SMT; assay: Time-dependent inactivation of Ac24-SMT (Kitz and Wilson plot); assay type: biochemical, Acanthamoeba castellanii
# Experimental: To show time-dependent inactivation, experiments were performed with a 100,000 g supernatant fraction containing the recombinant Ac24-SMT in two major steps. First, a preincubation experiment was established; to a 9 ml test tube containing DHL at the test concentrations (varied between 0 and 20 µM), 2.4 mg of total protein (ca. 160 µg SMT), 1.5 ml buffer, and a fixed concentration of SAM (100 µM) were added. The incubation was allowed to incubate for up to 20 min at 35°C. Second, at the time indicated, aliquots (20 µl) of the preincubation preparation were placed in a precooled (dry ice-ethanol) test tube to prevent catalysis. The frozen samples were then individually thawed and filtered three times with phosphate buffer to remove excess unbound inhibitor using Amicon ultracentrifugation filters. The remaining enzyme activity in each sample was determined by assaying each at saturating cycloartenol concentration (100 µM) and [methyl-^3H3] SAM (100 µM; 0.6 µC) under standard assay conditions for 1 h. The logarithmic percentage of remaining enzyme activity was plotted against the incubation time of the enzyme-inhibitor mixture to determine the half-life (T1/2) of inactivation. […] The point of intersection with the ordinate is the T1/2 at saturation from which the kinact can be calculated whereas the intercept along the X-axis gives the −1/Ki from which the Ki can be calculated.
smiles,measurement,setting,value
"CC(CCC=C1CC1)C1CC[C@@]2(C)C3=C(CCC12C)C1(C)CCC(O)C(C)(C)C1CC3 (stereo partly shown) [DHL, 26,27-dehydrolanosterol]",effect on sterol composition,[1],minimal effect
same,difference in catalytic competence (kcat/Km) from the natural substrate of 24-SMT,[2],greater than 10 fold
same,conversion by Ac24-SMT to product P1 (C26-monol),"[2]; GC/MS, saturating cosubstrates",3%
same,conversion by Ac24-SMT to product P2 (C26-diol),"[2]; GC/MS, saturating cosubstrates",1%
same,Km (Michaelis / binding constant) as substrate of Ac24-SMT,"[2]; saturating SAM 150 µM, initial velocity conditions",~33 µM
same,partition ratio (kcat/kinact),"[3]; C26 methyl monol product per inactivation event, 24-SMT",~1
same,kinact (maximum rate of inactivation) of Ac24-SMT,"[3]; preincubation with SAM 100 µM, 35°C",~0.4 min⁻¹
